Literature values as cited in US12691099B2, “Oral formulations of Edaravone and method of manufacturing thereof” (BDR PHARMACEUTICALS INTERNATIONAL PRIVATE LIMITED, priority 2019, dated 2026).
Values after ≈ are worked out from the molar mass of the structure shown.

Experiments:
[1] = poor solubility in water and lower lipid permeability

BCS class [1]: Class IV
solubility: 25 µg/mL (≈ 144 µM)
SMILES: CC1=NN(c2ccccc2)C(=O)C1 [Edaravone, 3-methyl-1-phenyl-2-pyrazolin-5-one]
